In one data set the target is T1, bovine COX-2 (Bos taurus, UniProt O62698).
T1 sequence (O62698 18-604): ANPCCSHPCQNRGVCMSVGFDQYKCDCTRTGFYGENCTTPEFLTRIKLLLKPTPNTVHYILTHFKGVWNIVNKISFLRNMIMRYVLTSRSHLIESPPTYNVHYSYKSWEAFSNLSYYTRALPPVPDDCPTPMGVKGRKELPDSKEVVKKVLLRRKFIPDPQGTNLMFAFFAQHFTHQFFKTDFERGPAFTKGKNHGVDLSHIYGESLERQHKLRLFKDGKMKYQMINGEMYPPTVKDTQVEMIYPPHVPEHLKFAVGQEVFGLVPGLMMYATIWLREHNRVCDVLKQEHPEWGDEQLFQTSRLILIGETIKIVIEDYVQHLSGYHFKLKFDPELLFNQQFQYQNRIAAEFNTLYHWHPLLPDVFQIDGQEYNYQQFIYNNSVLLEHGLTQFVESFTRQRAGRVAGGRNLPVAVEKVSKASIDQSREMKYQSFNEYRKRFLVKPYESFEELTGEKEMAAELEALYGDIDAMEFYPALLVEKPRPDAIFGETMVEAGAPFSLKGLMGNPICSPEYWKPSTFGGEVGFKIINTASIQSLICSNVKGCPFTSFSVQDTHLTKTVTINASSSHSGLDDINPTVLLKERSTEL
Nature of the data set: biochemical. It is filed as biochemical.

The nature of data set [1]: Inhibition of linoleic acid peroxidation induced by AAPH. Particulars: anti-lipid peroxidation of linoleic acid, 100 μM.
In data set [2] the target is T2, soybean lipoxygenase (isozyme LOX-1) (Glycine max, UniProt P08170).
T2 construct: purchased Sigma Chemical, Co. (St. Louis, MO, USA)
T2 sequence (P08170 1-839): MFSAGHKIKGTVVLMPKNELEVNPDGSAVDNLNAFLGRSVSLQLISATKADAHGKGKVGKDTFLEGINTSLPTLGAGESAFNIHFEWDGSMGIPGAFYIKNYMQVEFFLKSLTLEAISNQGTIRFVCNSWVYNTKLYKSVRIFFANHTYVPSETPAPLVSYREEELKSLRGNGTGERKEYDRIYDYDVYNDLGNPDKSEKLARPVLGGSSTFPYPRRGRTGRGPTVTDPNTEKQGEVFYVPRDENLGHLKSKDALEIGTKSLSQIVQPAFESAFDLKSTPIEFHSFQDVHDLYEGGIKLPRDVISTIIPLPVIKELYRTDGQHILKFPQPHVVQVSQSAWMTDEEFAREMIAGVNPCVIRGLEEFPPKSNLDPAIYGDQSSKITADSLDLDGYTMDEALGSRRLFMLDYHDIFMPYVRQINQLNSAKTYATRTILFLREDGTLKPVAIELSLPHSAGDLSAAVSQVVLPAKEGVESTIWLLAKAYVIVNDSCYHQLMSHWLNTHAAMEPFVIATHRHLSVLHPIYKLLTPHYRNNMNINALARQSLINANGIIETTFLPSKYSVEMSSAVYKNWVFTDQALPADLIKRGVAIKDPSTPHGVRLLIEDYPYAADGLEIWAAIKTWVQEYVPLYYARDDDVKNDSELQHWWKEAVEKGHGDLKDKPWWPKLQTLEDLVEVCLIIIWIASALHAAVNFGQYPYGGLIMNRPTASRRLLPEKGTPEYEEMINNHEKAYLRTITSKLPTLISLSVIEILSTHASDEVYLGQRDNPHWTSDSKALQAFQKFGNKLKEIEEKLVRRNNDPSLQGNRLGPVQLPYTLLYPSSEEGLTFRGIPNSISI
Nature of the data set: Soybean lipoxygenase inhibition study. The settings on record: soybean lipoxygenase, sodium linoleate substrate; read-out: LOX IC50 (μM) ± SEM. It is filed as biochemical.

Data set [3] is described as follows: Experimental lipophilicity as RM values by RPTLC. The settings on record: silica gel impregnated with liquid paraffin, methanol/water 77/23, 24 °C. The data set is classed as physicochemical.
For the next data set, the target named is T3, eel AChE (Electrophorus electricus, UniProt O42275).
T3 construct: purchased Sigma-Aldrich Type VI-S
As to the kind of experiment: biochemical. The settings on record: acetylthiocholine substrate, read-out: AChE IC50 (μM) ± SEM.

From publication PMC7662280 (Molecules, 2020) come the findings set out here.

Each structure is given as a SMILES string.

A word on the IC50: it is the concentration that gives 50% inhibition. What is called inhibition is the drop in the measured response relative to a control, in per cent.

T3 sequence (O42275 24-633): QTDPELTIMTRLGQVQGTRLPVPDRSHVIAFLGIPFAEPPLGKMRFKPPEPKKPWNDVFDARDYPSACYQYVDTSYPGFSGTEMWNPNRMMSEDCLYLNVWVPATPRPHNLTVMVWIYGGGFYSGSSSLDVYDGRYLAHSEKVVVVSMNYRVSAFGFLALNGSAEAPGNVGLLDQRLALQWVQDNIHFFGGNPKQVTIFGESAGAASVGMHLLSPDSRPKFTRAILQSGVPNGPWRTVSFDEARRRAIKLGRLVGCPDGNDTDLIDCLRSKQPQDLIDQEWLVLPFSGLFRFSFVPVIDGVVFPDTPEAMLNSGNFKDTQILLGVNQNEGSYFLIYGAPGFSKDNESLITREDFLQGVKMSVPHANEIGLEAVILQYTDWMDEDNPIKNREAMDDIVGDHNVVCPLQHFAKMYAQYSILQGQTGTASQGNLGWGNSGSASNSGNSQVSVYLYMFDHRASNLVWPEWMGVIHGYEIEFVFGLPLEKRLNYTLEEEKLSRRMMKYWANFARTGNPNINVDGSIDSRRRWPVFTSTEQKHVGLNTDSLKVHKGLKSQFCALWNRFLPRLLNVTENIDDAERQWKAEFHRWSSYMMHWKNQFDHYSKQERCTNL

For the compound `O=C(O)/C=C/c1ccc(O)c(O)c1` [2c, caffeic acid], on bovine COX-2 (bovine COX-2, 100 μM, n.a. = no activity under the experimental conditions), the “COX-2 (% Inhibition at 100 μM) ± SEM” value is given as “presented anti-COX-2 activity”. For the same compound, the IC50 on bovine COX-2 (bovine COX-2, read-out: COX-2 IC50 (μM) ± SEM) turned out to be 57.5 µM. In data set [1], the “AAPH Inhibition (%, at 100 μΜ)” value was found to be 80 ± 2.2%.

Take `O=C1/C(=C/c2cccs2)CN(C(=O)/C=C/c2cccc3ccccc23)C/C1=C\c1cccs1` [3e, (3E,5E)-1-((E)-3-(naphthalen-1-yl)acryloyl)-3,5-bis(thiophen-2-ylmethylene)piperidin-4-one]: the inhibition at 100 µM at bovine COX-2 (bovine COX-2, 100 μM, n.a. = no activity under the experimental conditions, read-out: COX-2 (% Inhibition at 100 μM) ± SEM) was found to be 19%. In data set [1], the “AAPH Inhibition (%, at 100 μΜ)” value is on record as 91 ± 2.5%. The IC50 in data set [2] came out at 52 µM; on eel AChE, 70 µM. In addition, the “RM ± S.D.” value in data set [3] turned out to be 0.514 ± 0.039.
